Source: US6570006B1, “Bacterial gene and method of treating a gram negative bacterial infection” (priority 1998, dated 2003)
In brackets after ≈: the same amount, converted by molar mass. Entries after “also recorded” stand apart in the source; their conditions may differ. Read-outs that look alike come from different tables or passages of the source.

How the values were obtained:
[1] = test system: CWG296 (waaP) + pWQ909; experiment: SDS and novobiocin sensitivity testing (MIC), complemented waaP mutant; assay type: cell-based, Escherichia coli; conditions: for resistance after introduction of multicopy waaP (in words): CWG296 with plasmid pWQ909
Protocol: (§1) Bacterial Strains and Growth Conditions—E. coli F470 is an R-LPS derivative of an O8:K27 strain (Schmidt, G. et al, 1969), and serves as the prototype for R1 core OS studies. Derivatives of F470 used in this study include CWG296 (F470 with a waaP::aacC1 insertion), CWG297 (F470 with a waaQ::aacC1 insertion), and CWG312 (F470 with a waaY::aacC1 insertion). Bacteria were grown in Luria-Bertani (LB) broth at 37° C. Growth media were supplemented with ampicillin (100 μg/mL), gentamicin (15 μg/mL), or chloramphenicol (30 μg/mL) when necessary.
Cloning and Expression of waaP for Complementation—Oligonucleotide primers for the amplification of waaP from the F470 chromosome were designed to introduce appropriate restriction sites for cloning. The forward primer (5′-TGTGGATccAAATAGTGGGCACTCA-3′)(SEQ. I.D. No. 7) introduced a BamHI site (underlined) 32 base pairs downstream of the waaP stop codon, and the complementary reverse primer (5′-GGGTGGTCcatATGGTTGAACTTAA-3′)(SEQ. I.D. No. 8) introduced an NdeI site (underlined) overlapping the waaP start codon (bases shown in lower case indicate mismatches between the primer and chromosomal sequences). The coding region for waaP alone was subsequently isolated as a BamHI-NdeI fragment, and cloned behind the arabinose-inducible PBAD promoter of the expression vector pBAD18, to generate plasmid pWQ909. L-arabinose was used at a final concentration of 0.002% to induce expression of WaaP from plasmid pWQ909.
(§2) Sodium dodecyl sulfate (SDS) and Novobiocin Sensitivity Testing—Two-fold serial dilutions of SDS (200→0.1 mg/mL) and novobiocin (200→1.6 μg/mL) were made in 5 mL volumes of LB. Each series of tubes was point inoculated from an overnight culture of the strain to be tested, and then incubated with shaking at 37° C. Growth was scored as positive if after 8 hours the culture was visibly turbid (i.e. A600>0.2).
Strain CWG296 was derived by insertion of the aacC1 gene into the unique NruI site in the waaP coding region of F470 (FIG. 2B). […]

[2] = test system: CWG312 (F470 with a waaY::aacC1 insertion); experiment: SDS and novobiocin sensitivity testing (MIC), waaY mutant; assay type: cell-based, Escherichia coli; conditions: for MIC / sensitivity compared with F470 (in words): strain CWG312 (waaY) versus F470 parent
Protocol: as §1, §2
To test this possibility, strain CWG312 was derived by insertion of the aacC1 gene into the unique SnaBI site in the waaY coding region of F470 (FIG. 2B). The LPS from the resulting mutant migrated similarly to that of the F470 parent in sodium dodexyl sulphate-polyacrylamine gel electrophoresis (SDS-PAGE) (data not shown), precluding any significant effect of the mutation on core OS extension.

[3] = test system: CWG297 (F470 with a waaQ::aacC1 insertion); experiment: SDS and novobiocin sensitivity testing (MIC), waaQ mutant; assay type: cell-based, Escherichia coli; conditions: for MIC / sensitivity compared with F470 (in words): strain CWG297 (waaQ) versus F470 parent
Protocol: as §1, §2
Strain CWG297 was derived by insertion of the aacC1 gene into the unique NruI site in the waaQ coding region of F470 (FIG. 2B).

[4] = test system: CWG296 (F470 with a waaP::aacC1 insertion); experiment: SDS and novobiocin sensitivity testing (MIC), waaP mutant; assay type: cell-based, Escherichia coli; conditions: for MIC: Escherichia coli, LB, 37° C., 8 hours; for MIC / sensitivity of the mutant (in words): strain CWG296 (waaP); for increase in the susceptibility: strain CWG296 (waaP) versus F470 parent
Protocol: as §1, §2
Strain CWG296 was derived by insertion of the aacC1 gene into the unique NruI site in the waaP coding region of F470 (FIG. 2B). The resulting mutant was hypersensitive to novobiocin and SDS (Table II), as expected based on results from previous studies (Helander, I. M. et al., 1989; Parker, C. T. et al., 1992).

[5] = test system: E. coli F470 (parent); experiment: SDS and novobiocin sensitivity testing (MIC), parent strain; assay type: cell-based; conditions: Escherichia coli, LB, 37° C., growth scored after 8 hours, read-out: Minimum inhibitory concentration (MIC) novobiocin
Protocol: as §1, §2

[6] = Escherichia coli, 8 h, read-out: Minimum inhibitory concentration (MIC) novobiocin

Compound	resistance after introduction of multicopy waaP (in words) [1]	MIC / sensitivity compared with F470 (in words) ([2]; sulfate)	MIC / sensitivity compared with F470 (in words) ([3]; sulfate)	MIC ([4]; read-out: Minimum inhibitory concentration (MIC) SDS) [mg/L]	sensitivity of the mutant (in words) [4]	increase in the susceptibility [4] [fold]	MIC ([1]; Escherichia coli, strain CWG296 (waaP) + pWQ909, LB, 37° C., 8 hours, read-out: Minimum inhibitory concentration (MIC) novobiocin) [mg/L]	MIC [2, 6] [mg/L]	MIC / sensitivity compared with F470 (in words) [2]	MIC [3, 6] [mg/L]	MIC / sensitivity compared with F470 (in words) [3]	MIC [5] [mg/L]	MIC ([4]; read-out: Minimum inhibitory concentration (MIC) novobiocin) [mg/L]
CCCCCCCCCCCCOS(=O)(=O)[O-].[Na+] [SDS, Sodium dodecyl sulfate]	restored wild-type levels of resistance	slightly less than for F470; also recorded: minor increase in the sensitivity	slightly less than for F470; also recorded: minor increase in the sensitivity	100	hypersensitive	> 1000							
CO[C@@H]1[C@@H](OC(N)=O)[C@@H](O)[C@H](Oc2ccc3c(O)c(NC(=O)c4ccc(O)c(CC=C(C)C)c4)c(=O)oc3c2C)OC1(C)C [novobiocin]	restored wild-type levels of resistance				hypersensitive	32	100	100 (≈ 163 µM)	slightly less than for F470; also recorded: minor increase in the sensitivity	100 (≈ 163 µM)	slightly less than for F470; also recorded: minor increase in the sensitivity	200 (≈ 326 µM)	6.3 (≈ 10.3 µM)
